Data set [1] addresses T1, Aromatic-L-amino-acid decarboxylase (Mus musculus) (UniProt O88533).
T1 sequence (whole entry): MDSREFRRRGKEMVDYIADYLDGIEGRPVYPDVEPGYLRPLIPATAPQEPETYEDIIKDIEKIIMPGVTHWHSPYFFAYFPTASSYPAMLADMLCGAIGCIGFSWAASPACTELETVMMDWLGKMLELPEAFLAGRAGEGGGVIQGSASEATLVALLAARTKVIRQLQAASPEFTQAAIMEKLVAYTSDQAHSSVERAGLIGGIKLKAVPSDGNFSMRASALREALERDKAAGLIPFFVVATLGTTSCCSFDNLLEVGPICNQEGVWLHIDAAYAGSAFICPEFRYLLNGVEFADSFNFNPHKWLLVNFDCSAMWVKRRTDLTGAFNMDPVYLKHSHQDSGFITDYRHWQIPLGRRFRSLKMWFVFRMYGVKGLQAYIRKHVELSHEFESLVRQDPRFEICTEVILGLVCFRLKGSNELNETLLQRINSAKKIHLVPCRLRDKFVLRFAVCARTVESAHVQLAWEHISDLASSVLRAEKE
The data set can be described thus: Inhibition of ICR Swiss mouse liver dopa decarboxylase at 2 X 10^-3 M after 15 mins.

The target in data set [2] is T1, Aromatic-L-amino-acid decarboxylase (Mus musculus). The data set can be described thus: Inhibition of ICR Swiss mouse liver dopa decarboxylase at 2 X 10^-5 M after 15 mins.
For data set [3] the target is unchanged. The data set can be described thus: Inhibition of ICR Swiss mouse liver dopa decarboxylase at 2 X 10^-4 M after 15 mins.
For data set [4], the target named is T2, Aromatic-L-amino-acid decarboxylase (Mus musculus, UniProt O88533).
T2 sequence (O88533 whole entry): T1 sequence (whole entry)
The data set can be described thus: Inhibition of ICR Swiss mouse liver dopa decarboxylase after 15 mins.

Data set [5] concerns the target T1, Aromatic-L-amino-acid decarboxylase (Mus musculus). Kind of data set: Inhibition of ICR Swiss mouse liver dopa decarboxylase at 10^-3 M after 15 mins.
Data set [6] has the same target. The data set can be described thus: Inhibition of ICR Swiss mouse liver dopa decarboxylase at 10^-5 M after 15 mins.
For data set [7] the target is unchanged. The data set can be described thus: Inhibition of ICR Swiss mouse liver dopa decarboxylase at 10^-4 M after 15 mins.
Compound in data set [8]: Cc1ncc(COP(=O)(O)O)c(CN[C@@H](Cc2ccc(O)c(O)c2)C(=O)O)c1O
The data set can be described thus: Inhibition of pig liver dopa decarboxylase. The conditions noted are these: Sus scrofa.

Where only a bound is given, the exact number is not on record here.

Broadly, the inhibition is the percentage by which the read-out fell short of the control. In general, IC50 refers to the concentration needed to halve the response being measured. Low readings indicate inhibition by little substance, high ones a need for much substance. As a reminder, the Km is the substrate concentration at which the rate is half of its maximum.

`Cc1ncc(COP(=O)(O)O)c(CNC(Cc2ccccc2O)C(=O)O)c1O` (racemic): the values for the inhibition in data set [1] and in data set [2] were 62% and 53%, respectively.

On to `Cc1cnc(C)c(O)c1CNC(Cc1ccc(O)c(O)c1)C(=O)O` (racemic), for which the inhibition in data set [1] worked out at 50%; in data set [3] it was 15%. Molecule `Cc1ncc(COP(=O)(O)O)c(CNC(Cc2ccc(O)c(O)c2)C(=O)O)c1O` (racemic) gave an inhibition in data set [2] of 63%. With `Cc1ncc(COP(=O)(O)O)c(CN[C@@H](Cc2ccc(O)c(O)c2)C(=O)O)c1O`, it took 10 µM to reach half-maximal inhibition in data set [4] (IC50). As to `Cc1ncc(COP(=O)(O)O)c(C2NC(C(=O)O)Cc3cc(O)c(O)cc32)c1O` (racemic), the inhibition in data set [5] is < 10%. In turn, `Cc1ncc(COP(=O)(O)O)c(CN[C@@H](Cc2ccc(O)cc2)C(=O)O)c1O` came in with an IC50 in data set [4] of 70 µM. Turning to `Cc1ncc(COP(=O)(O)O)c(CN[C@@H](Cc2ccccc2)C(=O)O)c1O`, the inhibition in data set [1] is 85%; in data set [6] it was 17%; in data set [5] it was 83%; in data set [7] it was 57%.

B1: Aromatic-L-amino-acid decarboxylase (Sus scrofa), P80041 (protein)
chain: MNASDFRRRGKEMVDYMADYLEGIEGRQVYPDVQPGYLRPLIPATAPQEPDTFEDILQDVEKIIMPGVTHWHSPYFFAYFPTASSYPAMLADMLCGAIGCIGFSWAASPACTELETVMMDWLGKMLQLPEAFLAGEAGEGGGVIQGSASEATLVALLAARTKVVRRLQAASPGLTQGAVLEKLVAYASDQAHSSVERAGLIGGVKLKAIPSDGKFAMRASALQEALERDKAAGLIPFFVVATLGTTSCCSFDNLLEVGPICHEEDIWLHVDAAYAGSAFICPEFRHLLNGVEFADSFNFNPHKWLLVNFDCSAMWVKRRTDLTGAFKLDPVYLKHSHQGSGLITDYRHWQLPLGRRFRSLKMWFVFRMYGVKGLQAYIRKHVQLSHEFEAFVLQDPRFEVCAEVTLGLVCFRLKGSDGLNEALLERINSARKIHLVPCRLRGQFVLRFAICSRKVESGHVRLAWEHIRGLAAELLAAEEGKAEIKS
B1: in data set [8], the Km is 190 µM.

The values are drawn from ChEMBL document CHEMBL3227989, “Coenzyme--substrate adducts as inhibitors of mouse liver 3,4-dihydroxyphenylalanine decarboxylase” (J Med Chem, 1979).
